Each structure is given as a SMILES string. In brackets after ≈: the same amount, converted by molar mass.

Test [1] has as its system isolated rabbit aorta (contraction induced by angiotensin II). In words: Inhibition of vascular contraction in isolated rabbit aorta rings in vitro, contractions induced by angiotensin II. To be noted: based on the 3rd (submaximal) agonist concentration. As for the experimental part: Rabbits of both sexes are stunned by a blow to the neck and bled out, or in some cases anesthetised with Nembutal (about 60-80 mg/kg i.v.) and sacrificed by opening the thorax. The thorax aorta is taken out, freed from adhering connective tissue, divided into 1.5 mm wide ring segments and individually transferred under an initial loading of about 3.5 g to 10 ml organ baths containing 95% 02 /5% CO2 -aerated Krebs-Henseleit nutrient solution temperature-controlled at 37° C. of the following composition: 119 mmol/l of NaCl: 2.5 mmol/l of CaCl2 ×2 H2 O; 1.2 mmol/l of KH2 PO4; 10 mmol/l of glucose; 4.8 mmol/l of KCl; 1.4 mmol/l of MgSO4 ×7 H2 O and 25 mmol/l of NaHCO3.
The contractions are measured isometrically by Statham UC2 cells by means of bridge amplifiers (ifd Mulheim or DSM Aalen) and digitalised and analysed by means of A/D converters (System 570, Keithley Munich). Agohist dose response curves (DRC) were plotted hourly. With each DRC, 3 or 4 individual concentrations are applied to the baths at an interval of 4 min. After completion of the DRC and subsequent washing-out cycles (16 times, in each case about 5 sec/min with the abovementioned nutrient solution), a 28-minute resting or incubation phase is added in the course of which the contractions usually reach the starting value again.
The height of the 3rd DRC in the normal case is used as a reference quantity for the evaluation of the test substance to be investigated in further passages, which is applied to the baths in the following DRCs in increasing dosage in each case at the start of the incubation time. In this way, each aorta ring is always stimulated for the whole day with the same agohist.
To calculate the IC50 (concentration at which the substance to be investigated causes a 50% inhibition), the effect is in each case based on the 3rd=submaximal agonist concentration.

For test [2], the target named is T1, type 2 angiotensin II receptor (AT2) (Bos taurus, UniProt G5E6F7).
T1 construct: membrane fractions of bovine cerebellum; purchased NEN DuPont NED-001; host or cells: bovine cerebellum membrane fractions
T1 sequence (G5E6F7 1-362): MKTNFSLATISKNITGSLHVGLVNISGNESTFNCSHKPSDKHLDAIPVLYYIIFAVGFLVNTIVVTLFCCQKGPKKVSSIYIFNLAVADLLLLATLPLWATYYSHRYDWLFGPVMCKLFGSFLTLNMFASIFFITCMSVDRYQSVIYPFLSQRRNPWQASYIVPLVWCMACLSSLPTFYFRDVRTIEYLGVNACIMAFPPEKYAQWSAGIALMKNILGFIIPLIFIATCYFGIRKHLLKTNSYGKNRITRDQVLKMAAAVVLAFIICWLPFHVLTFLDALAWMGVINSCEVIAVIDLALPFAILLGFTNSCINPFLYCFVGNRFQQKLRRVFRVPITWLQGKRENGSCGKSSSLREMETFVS
Kind of test: Interaction with the type 2 angiotensin II receptor (AT2) on membrane fractions of bovine cerebellum, 125I-angiotensin II binding. To be noted: bovine cerebellum membranes; 125I-angiotensin II about 0.1 nM; 60 min, 37° C. Here is the method: Interaction of the compounds according to the invention with the type 2 angiotensin II receptor (AT2) on membrane fractions of bovine cerebellum
For the test, the AT2 receptor "Drug Discovery System" of NEN DuPont (Catalogue No. NED-001) is used. The test is carried out correspondingly using the test protocol additionally supplied. Receptor binding is carried out in a test volume of 235 μl, which in detail contains ^125 I-angiotensin II (about 0.1 nM), Test buffer (PBS, NaCl, EDTA, PMSF, DTT, DMSO) and the substances to be investigated. After an incubation of 60 min at 37° C., the unbound radioactivity of the samples is separated by means of moistened glass fibre filters (Whatman GF/C) and the bound radioactivity is measured […] in a scintillation cocktail after washing the protein with ice-cold buffer solution (0.9% strength NaCl). The analysis of the raw data was carried out using computer programs for the IC50 or Ki value determination (IC50 value: concentration at which the substance to be investigated causes a 50% inhibition of the specific binding of the radioligand: Ki value: IC50 value corrected for the radioactivity used).

For test [3], the system named is smooth muscle cells from rats' aortas. Kind of test: Inhibition of proliferation of smooth muscle cells (3H-thymidine incorporation). To be noted: 10^-6 M, rat aortic smooth muscle cells, 10% FCS. The test is classed as cell-based. As for the experimental part: Investigation of the inhibition of proliferation of smooth muscle cells by the compounds according to the invention
To determine the antiproliferative action of the compounds, smooth muscle cells are used that have been obtained from rats' aortas by the media explant technique [R. Ross, J. Cell. Biol. 50. 172, 1971]. The cells are innoculated into suitable culture dishes (as a rule 96-hole plates, and cultured at 37° C. for 2-3 days in medium containing added serum, 2 mM L-glutamine and 15 mM HEPES, pH 7.4, in 5% CO2. The cells are then synchronised by withdrawal of serum for 2-3 days and then stimulated into growth by serum or other factors. Test desired compounds are added simultaneously. After 16-20 hours, 1 μCi of ^3 H-thymidine is added, and after a further 4 hours, the incorporation of this substance into the TCA-precipitable DNA of the cells is determined.
Background: Uptake of a labelled nucleoside into DNA is a usual measure of proliferation.

For test [4], the target named is T2, angiotensin II receptor on membrane fractions of adrenal gland cortex (bovine) (Bos taurus, UniProt P25104).
T2 construct: partially purified membrane fractions of bovine AGC using radioactive angiotensin II; from tissue; host or cells: bovine adrenal gland cortex, partially purified membrane fractions
T2 sequence (P25104 1-359): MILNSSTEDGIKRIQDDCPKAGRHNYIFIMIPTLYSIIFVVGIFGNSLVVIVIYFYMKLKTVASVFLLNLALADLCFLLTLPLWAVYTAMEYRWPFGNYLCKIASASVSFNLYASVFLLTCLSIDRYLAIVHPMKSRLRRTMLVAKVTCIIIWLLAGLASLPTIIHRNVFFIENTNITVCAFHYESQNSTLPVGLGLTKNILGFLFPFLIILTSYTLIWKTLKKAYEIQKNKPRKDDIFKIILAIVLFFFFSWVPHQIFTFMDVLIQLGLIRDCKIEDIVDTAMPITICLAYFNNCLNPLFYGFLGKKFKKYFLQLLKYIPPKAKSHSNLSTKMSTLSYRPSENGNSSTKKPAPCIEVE
Kind of test: Interaction with the angiotensin II receptor on membrane fractions of adrenal gland cortex (bovine), 3H-angiotensin II binding. To be noted: 3H-angiotensin II 3-5 nM, 60 min, room temperature. An excerpt:
Interaction of the compounds according to the invention with the angiotensin II receptor on membrane fractions of adrenal gland cortex (bovine)
Bovine adrenal gland cortices (AGC) which have been freshly removed and carefully freed from gland medulla are comminuted in sucrose solution (0.32M) with the aid of an Ultra-turrax (Janke & Kunkel, Staufen I. B.) to give a coarse membrane homogenate and are partially purified to give membrane fractions in two centrifugation steps. The receptor binding investigations are carried out on partially purified membrane fractions of bovine AGC using radioactive angiotensin II in an assay volume of 0.25 ml which, in detail, contains the partially purified membranes (50-80 μg) ^3 H-angiotensin II (3-5 nM), test buffer solution (50 mM tris, pH 7.2), 5 mM MgCl2 and the substances to be investigated. After an incubation time of 60 min at room temperature, the unbound radioactivity of the samples is separated by means of moistened glass fibre filters (Whatman GF/C) and the bound radioactivity is measured […] in a scintillation cocktail after washing the protein with ice-cold buffer solution (50 mM tris/HCl, pH 7.4, 5% PEG 6000). […]

For orientation: Ki means a measure of affinity in units of concentration, obtained from inhibition or displacement. Take `CCCCc1nc(Cl)c(/C=C(\CC2CCCCC2)C(=O)O)n1Cc1ccc(C(C(=O)O)C2CCCC2)cc1` (racemic) [Example 4]: the “IC50 against contractions induced by angiotensin II” value (from here on “IC50 against contractions induced”) in test [1] came to 0.063 µg/mL (≈ 0.116 µM). Affinity in test [2] was put at a Ki of 827 nM.

The term inhibition denotes the change of the read-out against control, counted positive when it falls. A lower inhibition goes with a weak effect. Turning to `CCCCc1nc(Cl)c(/C=C(\CC2CCCCC2)C(=O)OC)n1Cc1ccc(C(C(=O)N[C@H](CO)c2ccccc2)C2CCCC2)cc1` (stereo partly drawn) [Example 5, (E)-2-[4-{2-n-Butyl-4-chloro-5-(3-cyclohexyl-2-methoxyarbonyl-prop-1-en-yl)-1H-imidazol-1-methyl}phenyl]-2-cyclopentyl-acetic acid L-phenylglycinolamide], in test [3], 1 µM produced 90% inhibition.

Compound `CCCCc1nc(Cl)c(/C=C(\CC2CCCCC2)C(=O)OC)n1Cc1ccc(C(C(=O)NS(=O)(=O)c2ccc(C)cc2)C2CCCC2)cc1` (stereo not shown) [Example 6, (E)-N-4-Toluenesulphonyl-2-[4-{2-n-butyl-4-chloro-5-(3-cyclohexyl-2-methoxycarbonyl-prop-1-en-yl)-1H-imidazol-1-yl-methyl}phenyl]-2-cyclopentyl-acetamide] yielded a Ki in test [4] of 750 nM.

As to `CCCCc1nc(Cl)c(/C=C(\CC2CCCCC2)C(=O)O)n1Cc1ccc(C(C(=O)NS(=O)(=O)c2ccc(C)cc2)C2CCCC2)cc1` (stereo not shown) [Example 7], the “IC50 against contractions induced” value in test [1] was 0.051 µg/mL (≈ 0.0735 µM).

For the compound `CCCCc1nc(Cl)c(/C=C(\CC2CCCCC2)C(=O)O)n1Cc1ccc(C(C(=O)N[C@H](CO)c2ccccc2)C2CCCC2)cc1` (stereo partly shown) [Example 8], the affinity in test [4], expressed as Ki, was 80 nM.

On to `CCCCc1nc(Cl)c(/C=C(\CC2CCCCC2)C(=O)O)n1Cc1ccc(C(C(=O)O)C2CCCCCC2)cc1` (stereo not shown) [Example 12], for which the “IC50 against contractions induced” value in test [1] was determined as 0.046 µg/mL (≈ 0.0808 µM).

The values above are taken from patent US5376671A, “Propenoyl-imidazole derivatives” (Bayer Aktiengesellschaft, priority 1992, dated 1994).
